Assay results published in patent US20050054696A1, “Indole compounds and medicinal use thereof” (priority 2001, published 2005).

Each molecule was assayed against T1, recombinant human liver glycogen phosphorylase (HLGPa) (Homo sapiens, UniProt P06737) (assay: Measurement of liver glycogen phosphorylase activity (enzyme inhibitory activity against HLGPa)). Conditions: Sf9 cell lysate expressing recombinant enzyme; reverse reaction (glycogen synthesis from G1-P), phosphate by malachite green, 60 min room temperature.
T1 construct: made in house; host or cells: Sf9 insect cells (unpurified cell lysate used as enzyme solution)
T1 sequence (P06737 1-847): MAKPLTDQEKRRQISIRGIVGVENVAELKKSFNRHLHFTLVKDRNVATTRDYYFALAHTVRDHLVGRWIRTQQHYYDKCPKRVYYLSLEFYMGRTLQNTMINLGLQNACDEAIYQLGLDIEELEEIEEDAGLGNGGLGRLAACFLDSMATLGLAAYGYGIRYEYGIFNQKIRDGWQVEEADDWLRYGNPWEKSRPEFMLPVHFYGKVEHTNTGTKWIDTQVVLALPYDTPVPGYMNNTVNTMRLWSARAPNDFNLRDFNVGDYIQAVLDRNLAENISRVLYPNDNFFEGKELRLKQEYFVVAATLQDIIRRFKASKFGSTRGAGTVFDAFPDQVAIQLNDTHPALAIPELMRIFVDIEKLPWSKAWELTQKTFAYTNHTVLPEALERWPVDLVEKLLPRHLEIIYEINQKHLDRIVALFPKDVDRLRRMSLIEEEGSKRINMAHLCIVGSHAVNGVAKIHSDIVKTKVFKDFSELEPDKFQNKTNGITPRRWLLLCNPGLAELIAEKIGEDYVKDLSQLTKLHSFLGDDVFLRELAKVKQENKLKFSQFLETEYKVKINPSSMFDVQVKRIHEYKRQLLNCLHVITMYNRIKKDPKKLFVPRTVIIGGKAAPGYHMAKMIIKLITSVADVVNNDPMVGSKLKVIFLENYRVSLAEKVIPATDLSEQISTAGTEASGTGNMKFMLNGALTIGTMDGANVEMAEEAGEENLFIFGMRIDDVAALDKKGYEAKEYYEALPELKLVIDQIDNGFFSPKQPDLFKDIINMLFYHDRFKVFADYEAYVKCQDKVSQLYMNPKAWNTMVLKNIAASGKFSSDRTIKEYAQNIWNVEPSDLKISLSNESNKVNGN
Type: biochemical
Method: Measurement Method of Liver Glycogen Phosphorylase Activity
The measurement of the glycogen phosphorylase activity was performed by measuring the concentration of phosphoric acic produced by a reverse reaction, that is, a reaction wherein the glycogen phosphorylase synthesizes glycogen from G1-P. A cell lysate of Sf9 cells that forcibly expressed recombinant human liver glycogen phosphorylase was diluted to a protein amount of 80 μg/mL with 1 mM imidazole-hydrochloric acid buffer (pH 7.0, containing 0.2 mM PMSF, 250 mM NaCl, 0.025% BSA) and the dilute cell lysate was used as an enzyme solution of human liver glycogen phosphorylase. As a substrate solution, 25 mM Tris-HCl buffer (pH 7.2, containing 250 mM KCl, 6.25 mM MgCl2, 6.25 mM EGTA, 1.25 mM glucose-1-phosphate, 2.5 mg/ml glycogen, 7.5 mM glucose) was used. The test drug was dissolved in 0.5% dimethyl sulfoxide (DMSO). To a mixture of the test drug (10 μl) and the substrate solution (20 μl) was added an enzyme solution (20 μl) to start the enzyme reaction. As a control, 0.5% DMSO was added instead of the test drug. One free of addition of enzyme was used as a blank. The mixture was reacted at room temperature for 60 min, and a malachite green solution (50 μl) was added. The mixture was further reacted at room temperature for 20 min and absorbance at 650 nm was measured. An enzyme solution was added to the blank simultaneously with the malachite green solution and the measurement was done in the same manner. The percent inhibition (%) of the test drug was calculated from ((value of control−value of the test drug)/(value of control−value of blank))×100 (%).
O=C(NNC(=O)c1cc2ccc(Cl)cc2[nH]1)c1ccccc1 [Example 1-124, benzoic acid 2-(6-chloro-1H-indole-2-carbonyl)hydrazide] was tested, and the IC50 was over 100 nM.
In the case of Cn1c(=O)n(NC(=O)c2cc3cc(Cl)ccc3[nH]2)c(=O)c2ccccc21 [Example 2-31, 5-chloro-1H-indole-2-carboxylic acid (1,2,3,4-tetrahydro-1-methyl-2,4-dioxoquinazolin-3-yl)amide], the IC50 is reported as 26 nM.
For O=C(NNC(=O)c1ccccc1OCCO)c1cc2cc(Cl)ccc2[nH]1 [Example 1-68, 2-(2-hydroxyethoxy)benzoic acid 2-(5-chloro-1H-indole-2-carbonyl)hydrazide], the IC50 was 160 nM.
With O=C(NNC(=O)c1cc2cc(Cl)ccc2[nH]1)c1ccncc1 [Example 1-42, isonicotinic acid 2-(5-chloro-1H-indole-2-carbonyl)hydrazide] the IC50 was 260 nM.
Work on O=C(O)CNc1ccccc1C(=O)NNC(=O)c1cc2cc(Cl)ccc2[nH]1 [Example 1-61, 2-(2-(2-(5-chloro-1H-indole-2-carbonyl)hydrazinocarbonyl)anilino)acetic acid] yielded an IC50 of 49 nM.
Work on O=C(NNC(=O)c1c(Cl)cccc1Cl)c1cc2cc(Cl)ccc2[nH]1 [Example 1-25, 2,6-dichlorobenzoic acid 2-(5-chloro-1H-indole-2-carbonyl)hydrazide] yielded an IC50 of 140 nM.
With O=C(Nn1c(=O)[nH]c2ccc(Cl)cc2c1=O)c1cc2cc(Cl)ccc2[nH]1 [Example 2-18, 5-chloro-1H-indole-2-carboxylic acid (6-chloro-1,2,3,4-tetrahydro-2,4-dioxoquinazolin-3-yl)amide] the IC50 was 40 nM.
Work on O=C(NNC(=O)c1cc2cc(Cl)ccc2[nH]1)c1ccsc1 [Example 1-83, thiophene-3-carboxylic acid 2-(5-chloro-1H-indole-2-carbonyl)hydrazide] yielded an IC50 of 880 nM.
With CNc1ccccc1C(=O)NNC(=O)c1cc2cc(Cl)ccc2[nH]1 [Example 1-53, 2-methylaminobenzoic acid 2-(5-chloro-1H-indole-2-carbonyl)hydrazide] the IC50 was 230 nM.
For O=C(NN1C(=O)CNC1=O)c1cc2cc(Cl)ccc2[nH]1 [Example 4-11, 5-chloro-1H-indole-2-carboxylic acid (2,4-dioxoimidazolidin-3-yl)amide], the IC50 was over 100 nM.
O=C(NN1C(=O)CN(c2ccccc2)C1=O)c1cc2cc(Cl)ccc2[nH]1 [Example 4-2, N-(2,4-dioxo-1-phenylimidazolidin-3-yl)-5-chloro-1H-indole-2-carboxamide] gave an IC50 of 23 nM.
Work on O=C(Nn1c(=O)[nH]c2c(Cl)cccc2c1=O)c1cc2cc(Cl)ccc2[nH]1 [Example 2-20, 5-chloro-1H-indole-2-carboxylic acid (8-chloro-1,2,3,4-tetrahydro-2,4-dioxoquinazolin-3-yl)amide] yielded an IC50 of 22 nM.
Work on N=C(NNC(=O)c1cc2cc(Cl)ccc2[nH]1)c1ccccc1C(F)(F)F [Example 1-139, 5-chloro-1H-indole-2-carboxylic acid 2-(imino-(2-trifluoromethylphenyl)-methyl)hydrazide] yielded an IC50 of 380 nM.
In the case of Nc1ccsc1C(=O)NNC(=O)c1cc2cc(Cl)ccc2[nH]1 [Example 1-101, 3-aminothiophene-2-carboxylic acid 2-(5-chloro-1H-indole-2-carbonyl)hydrazide], the IC50 is reported as 35 nM.
O=C(NNC(=O)c1cc2cc(Cl)ccc2[nH]1)c1ccccc1 [Example 1, benzoic acid 2-(5-chloro-1H-indole-2-carbonyl)hydrazide] gave an IC50 of 38 nM.
Work on CN(C)C(=O)COc1ccccc1C(=O)NNC(=O)c1cc2cc(Cl)ccc2[nH]1 [Example 1-52, 2-(2-(5-chloro-1H-indole-2-carbonyl)hydrazinocarbonyl)phenoxy-N,N-dimethylacetamide] yielded an IC50 of 91 nM.
Molecule O=C(O)Cn1c(=O)n(NC(=O)c2cc3cc(Cl)ccc3[nH]2)c(=O)c2ccccc21 [Example 2-21, 2-(3-((5-chloro-1H-indole-2-carbonyl)amino)-1,2,3,4-tetrahydro-2,4-dioxoquinazolin-1-yl)acetic acid] has an IC50 of over 100 nM.
Molecule Cc1ccccc1C(=N)NNC(=O)c1cc2cc(Cl)ccc2[nH]1 [Example 1-133, 5-chloro-1H-indole-2-carboxylic acid 2-(imino-(o-tolyl)-methyl)hydrazide] has an IC50 of 50 nM.
For O=C(Nc1ccccc1C(=O)NNC(=O)c1cc2cc(Cl)ccc2[nH]1)Oc1ccccc1 [Example 1-109, phenyl (2-(2-(5-chloro-1H-indole-2-carbonyl)hydrazinocarbonyl)phenyl)carbamate], the IC50 was 140 nM.
O=C(NN1CCN(c2ccccc2)C1=O)c1cc2cc(Cl)ccc2[nH]1 [Example 4-5, N-(2-oxo-1-phenylimidazolidin-3-yl)-5-chloro-1H-indole-2-carboxamide] was tested, and the IC50 was over 100 nM.
In the case of O=C(NNC(=O)c1cc2sccc2[nH]1)c1cc2cc(Cl)ccc2[nH]1 [Example 1-108, 4H-thieno[3,2-b]pyrrole-5-carboxylic acid 2-(5-chloro-1H-indole-2-carbonyl)hydrazide], the IC50 is reported as 56 nM.
CC(C)c1ccc2[nH]c(C(=O)Nn3c(=O)[nH]c4ccccc4c3=O)cc2c1 [Example 2-9, 5-isopropyl-1H-indole-2-carboxylic acid (1,2,3,4-tetrahydro-2,4-dioxoquinazolin-3-yl)amide] was tested, and the IC50 was over 100 nM.
Molecule COc1ccccc1C(=O)NNC(=O)c1cc2cc(Cl)ccc2[nH]1 [Example 1-15, 2-methoxybenzoic acid 2-(5-chloro-1H-indole-2-carbonyl)hydrazide] has an IC50 of 120 nM.
In the case of O=C(NNC(=O)C1(c2ccccc2)CCCCC1)c1cc2cc(Cl)ccc2[nH]1 [Example 5-14, 5-chloro-1H-indole-2-carboxylic acid 2-((1-phenylcyclohexane)carbonyl)hydrazide], the IC50 is reported as 300 nM.
Molecule O=C(NNC(=O)c1ccc(F)cc1F)c1cc2cc(Cl)ccc2[nH]1 [Example 1-26, 2,4-difluorobenzoic acid 2-(5-chloro-1H-indole-2-carbonyl)hydrazide] has an IC50 of 18 nM.
With Cc1ccc(C(=O)NNC(=O)c2cc3cc(Cl)ccc3[nH]2)cc1 [Example 1-14, 4-methylbenzoic acid 2-(5-chloro-1H-indole-2-carbonyl)hydrazide] the IC50 was 130 nM.
O=C(NNC(=O)c1cccc(F)c1F)c1cc2cc(Cl)ccc2[nH]1 [Example 1-91, 2,3-difluorobenzoic acid 2-(5-chloro-1H-indole-2-carbonyl)hydrazide] showed an IC50 of 56 nM.
Cc1ccc2[nH]c(C(=O)NNC(=O)c3ccccc3N)cc2c1 [Example 1-62, 2-aminobenzoic acid 2-(5-methyl-1H-indole-2-carbonyl)hydrazide] was tested, and the IC50 was 88 nM.
O=C(Nc1ccccc1C(=O)NNC(=O)c1cc2cc(Cl)ccc2[nH]1)OCCCO [Example 1-112, 3-hydroxypropyl (2-(2-(5-chloro-1H-indole-2-carbonyl)hydrazinocarbonyl)phenyl)carbamate] showed an IC50 of 28 nM.
For O=C(NN1C(=O)CN(c2ccc(F)cc2)C1=O)c1cc2cc(Cl)ccc2[nH]1 [Example 4-13, 5-chloro-1H-indole-2-carboxylic acid (2,4-dioxo-1-(4-fluorophenyl)imidazolidin-3-yl)amide], the IC50 was over 100 nM.
With O=C(NNC(=O)c1cc2cc(Cl)ccc2[nH]1)Nc1ccccc1F [Example 5-5, 5-chloro-1H-indole-2-carboxylic acid 2-((2-fluorophenyl)aminocarbonyl)hydrazide] the IC50 was 79 nM.
Cc1ccc2[nH]c(C(=O)NNC(=O)c3cccn3C)cc2c1 [Example 1-106, 1-methyl-1H-pyrrole-2-carboxylic acid 2-(5-methyl-1H-indole-2-carbonyl)hydrazide] was tested, and the IC50 was 78 nM.
CS(=O)(=O)O.N=C(Cc1ccccc1)NNC(=O)c1cc2cc(Cl)ccc2[nH]1 [Example 6-21, 5-chloro-1H-indole-2-carboxylic acid 2-((1-imino-2-phenylethyl)hydrazide methanesulfonate] showed an IC50 of 84 nM.
